Molecules are shown by their SMILES.
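Note: compound exposure lasted 7 days after spheroids had grown for 3 days.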

One assay relates to 699152-130-R-J1-PDC complex spheroid growth. The assay can be described thus: Anticancer human tumor 699152-130-R-J1-PDC patient-derived pancreatic carcinoma cell line growth inhibition [AhR]. To be noted: second compound 0.316 µM; first compound 0.316 µM; stronger effect = lower value. The procedure, abridged: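 Agents were dosed in half-log steps down from roughly clinical Cmax, or from 10 microM where Cmax was unknown, alone and with AhR antagonists. Read-out: percent test/control growth of tumor spheroids containing HUVEC and MSC stromal cells.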
As usually defined, the viability, T/C is the ratio of treated to control. For `CC1COCCN1c1cc(-c2ccnn2C)c2ccnc(-c3ccn[nH]3)c2n1` (stereo not given) + CC(CO)NC(=O)c1cc(-c2ccc(Cl)cc2)nn(-c2cnn(C)c2)c1=O, the viability, T/C was 77.7%.

Still in this assay, the particulars now being: second compound 0.316 µM; first compound 1 µM; stronger effect = lower value.
In the case of `CC1COCCN1c1cc(-c2ccnn2C)c2ccnc(-c3ccn[nH]3)c2n1` (stereo not given) + Cc1ccccc1N=Nc1ccc(NC(=O)c2ccnn2C)c(C)c1, the viability, T/C is 61.9%.

Consider `NS(=O)(=O)OCC1CC(n2ccc3c(NC4CCc5ccccc54)ncnc32)CC1O` (stereo not given) + Cc1ccccc1N=Nc1ccc(NC(=O)c2ccnn2C)c(C)c1, for which the viability, T/C is 29.4%.

Consider `COc1ccc([C@@H](O)c2cc(-c3ncnc4cc(N5CCOCC5)ccc34)c(F)cc2Cl)nn1` + Cc1ccccc1N=Nc1ccc(NC(=O)c2ccnn2C)c(C)c1, for which the viability, T/C is 80%.

For `CC1COCCN1c1cc(-c2ccnn2C)c2ccnc(-c3ccn[nH]3)c2n1` (stereo not given) + CC(CO)NC(=O)c1cc(-c2ccc(Cl)cc2)nn(-c2cnn(C)c2)c1=O, the viability, T/C was 59.1%.

The assay is the same for the next values; noted with them: second compound 0.316 µM; first compound 3.16 µM; stronger effect = lower value.
On to `NS(=O)(=O)OCC1CC(n2ccc3c(NC4CCc5ccccc54)ncnc32)CC1O` (stereo not given) + Cc1ccccc1N=Nc1ccc(NC(=O)c2ccnn2C)c(C)c1, for which the viability, T/C is 18.5%.

For the compound `COc1ccc([C@@H](O)c2cc(-c3ncnc4cc(N5CCOCC5)ccc34)c(F)cc2Cl)nn1` + Cc1ccccc1N=Nc1ccc(NC(=O)c2ccnn2C)c(C)c1, the viability, T/C is 55.6%.

The same assay, now with this note: second compound 0.316 µM; first compound 10 µM; stronger effect = lower value.
In the case of `NS(=O)(=O)OCC1CC(n2ccc3c(NC4CCc5ccccc54)ncnc32)CC1O` (stereo not given) + Cc1ccccc1N=Nc1ccc(NC(=O)c2ccnn2C)c(C)c1, the viability, T/C was 20.1%.

As for `COc1ccc([C@@H](O)c2cc(-c3ncnc4cc(N5CCOCC5)ccc34)c(F)cc2Cl)nn1` + Cc1ccccc1N=Nc1ccc(NC(=O)c2ccnn2C)c(C)c1, the viability, T/C is 32.3%.

The same assay, now with this note: second compound 1 µM; first compound 0.00316 µM; stronger effect = lower value.
As for `CC1COCCN1c1cc(-c2ccnn2C)c2ccnc(-c3ccn[nH]3)c2n1` (stereo not given) + Cc1ccccc1N=Nc1ccc(NC(=O)c2ccnn2C)c(C)c1, the viability, T/C is 99.8%.

Regarding `CC1COCCN1c1cc(-c2ccnn2C)c2ccnc(-c3ccn[nH]3)c2n1` (stereo not given) + CC(CO)NC(=O)c1cc(-c2ccc(Cl)cc2)nn(-c2cnn(C)c2)c1=O, the viability, T/C was 102%.

The assay is the same for the next values; noted with them: second compound 1 µM; first compound 0.01 µM; stronger effect = lower value.
Regarding `CC1COCCN1c1cc(-c2ccnn2C)c2ccnc(-c3ccn[nH]3)c2n1` (stereo not given) + Cc1ccccc1N=Nc1ccc(NC(=O)c2ccnn2C)c(C)c1, the viability, T/C was 110%.

As for `CC1COCCN1c1cc(-c2ccnn2C)c2ccnc(-c3ccn[nH]3)c2n1` (stereo not given) + CC(CO)NC(=O)c1cc(-c2ccc(Cl)cc2)nn(-c2cnn(C)c2)c1=O, the viability, T/C is 101%.

The same assay, now with this note: second compound 1 µM; first compound 0.0316 µM; stronger effect = lower value.
With `CC1COCCN1c1cc(-c2ccnn2C)c2ccnc(-c3ccn[nH]3)c2n1` (stereo not given) + Cc1ccccc1N=Nc1ccc(NC(=O)c2ccnn2C)c(C)c1, the viability, T/C was 101%.

Regarding `NS(=O)(=O)OCC1CC(n2ccc3c(NC4CCc5ccccc54)ncnc32)CC1O` (stereo not given) + Cc1ccccc1N=Nc1ccc(NC(=O)c2ccnn2C)c(C)c1, the viability, T/C was 105%.

`COc1ccc([C@@H](O)c2cc(-c3ncnc4cc(N5CCOCC5)ccc34)c(F)cc2Cl)nn1` + Cc1ccccc1N=Nc1ccc(NC(=O)c2ccnn2C)c(C)c1: the viability, T/C is 96.8%.

Consider `CC1COCCN1c1cc(-c2ccnn2C)c2ccnc(-c3ccn[nH]3)c2n1` (stereo not given) + CC(CO)NC(=O)c1cc(-c2ccc(Cl)cc2)nn(-c2cnn(C)c2)c1=O, for which the viability, T/C was 105%.

The same assay, now with this note: second compound 1 µM; first compound 0.1 µM; stronger effect = lower value.
In the case of `CC1COCCN1c1cc(-c2ccnn2C)c2ccnc(-c3ccn[nH]3)c2n1` (stereo not given) + Cc1ccccc1N=Nc1ccc(NC(=O)c2ccnn2C)c(C)c1, the viability, T/C was 93.5%.

In the case of `NS(=O)(=O)OCC1CC(n2ccc3c(NC4CCc5ccccc54)ncnc32)CC1O` (stereo not given) + Cc1ccccc1N=Nc1ccc(NC(=O)c2ccnn2C)c(C)c1, the viability, T/C was 116%.

`COc1ccc([C@@H](O)c2cc(-c3ncnc4cc(N5CCOCC5)ccc34)c(F)cc2Cl)nn1` + Cc1ccccc1N=Nc1ccc(NC(=O)c2ccnn2C)c(C)c1: the viability, T/C is 91.8%.

In the case of `CC1COCCN1c1cc(-c2ccnn2C)c2ccnc(-c3ccn[nH]3)c2n1` (stereo not given) + CC(CO)NC(=O)c1cc(-c2ccc(Cl)cc2)nn(-c2cnn(C)c2)c1=O, the viability, T/C was 87.5%.

Still in this assay, the particulars now being: second compound 1 µM; first compound 0.316 µM; stronger effect = lower value.
With `CC1COCCN1c1cc(-c2ccnn2C)c2ccnc(-c3ccn[nH]3)c2n1` (stereo not given) + Cc1ccccc1N=Nc1ccc(NC(=O)c2ccnn2C)c(C)c1, the viability, T/C is 79.5%.

`NS(=O)(=O)OCC1CC(n2ccc3c(NC4CCc5ccccc54)ncnc32)CC1O` (stereo not given) + Cc1ccccc1N=Nc1ccc(NC(=O)c2ccnn2C)c(C)c1: the viability, T/C was 105%.

As to `COc1ccc([C@@H](O)c2cc(-c3ncnc4cc(N5CCOCC5)ccc34)c(F)cc2Cl)nn1` + Cc1ccccc1N=Nc1ccc(NC(=O)c2ccnn2C)c(C)c1, the viability, T/C is 87.2%.

For the compound `CC1COCCN1c1cc(-c2ccnn2C)c2ccnc(-c3ccn[nH]3)c2n1` (stereo not given) + CC(CO)NC(=O)c1cc(-c2ccc(Cl)cc2)nn(-c2cnn(C)c2)c1=O, the viability, T/C was 72.3%.

Staying with this assay, now noted: second compound 1 µM; first compound 1 µM; stronger effect = lower value.
`CC1COCCN1c1cc(-c2ccnn2C)c2ccnc(-c3ccn[nH]3)c2n1` (stereo not given) + Cc1ccccc1N=Nc1ccc(NC(=O)c2ccnn2C)c(C)c1: the viability, T/C was 66.9%.

On to `NS(=O)(=O)OCC1CC(n2ccc3c(NC4CCc5ccccc54)ncnc32)CC1O` (stereo not given) + Cc1ccccc1N=Nc1ccc(NC(=O)c2ccnn2C)c(C)c1, for which the viability, T/C is 30.3%.

For `COc1ccc([C@@H](O)c2cc(-c3ncnc4cc(N5CCOCC5)ccc34)c(F)cc2Cl)nn1` + Cc1ccccc1N=Nc1ccc(NC(=O)c2ccnn2C)c(C)c1, the viability, T/C is 79.5%.

With `CC1COCCN1c1cc(-c2ccnn2C)c2ccnc(-c3ccn[nH]3)c2n1` (stereo not given) + CC(CO)NC(=O)c1cc(-c2ccc(Cl)cc2)nn(-c2cnn(C)c2)c1=O, the viability, T/C is 58.3%.

Staying with this assay, now noted: second compound 1 µM; first compound 3.16 µM; stronger effect = lower value.
In the case of `NS(=O)(=O)OCC1CC(n2ccc3c(NC4CCc5ccccc54)ncnc32)CC1O` (stereo not given) + Cc1ccccc1N=Nc1ccc(NC(=O)c2ccnn2C)c(C)c1, the viability, T/C was 20.2%.

Turning to `COc1ccc([C@@H](O)c2cc(-c3ncnc4cc(N5CCOCC5)ccc34)c(F)cc2Cl)nn1` + Cc1ccccc1N=Nc1ccc(NC(=O)c2ccnn2C)c(C)c1, the viability, T/C is 61.1%.

Staying with this assay, now noted: second compound 1 µM; first compound 10 µM; stronger effect = lower value.
On to `NS(=O)(=O)OCC1CC(n2ccc3c(NC4CCc5ccccc54)ncnc32)CC1O` (stereo not given) + Cc1ccccc1N=Nc1ccc(NC(=O)c2ccnn2C)c(C)c1, for which the viability, T/C was 27.1%.

As for `COc1ccc([C@@H](O)c2cc(-c3ncnc4cc(N5CCOCC5)ccc34)c(F)cc2Cl)nn1` + Cc1ccccc1N=Nc1ccc(NC(=O)c2ccnn2C)c(C)c1, the viability, T/C was 35.6%.

Still in this assay, the particulars now being: second compound 3.16 µM; first compound 0.00316 µM; stronger effect = lower value.
On to `CC1COCCN1c1cc(-c2ccnn2C)c2ccnc(-c3ccn[nH]3)c2n1` (stereo not given) + Cc1ccccc1N=Nc1ccc(NC(=O)c2ccnn2C)c(C)c1, for which the viability, T/C is 105%.

As to `CC1COCCN1c1cc(-c2ccnn2C)c2ccnc(-c3ccn[nH]3)c2n1` (stereo not given) + CC(CO)NC(=O)c1cc(-c2ccc(Cl)cc2)nn(-c2cnn(C)c2)c1=O, the viability, T/C was 85.8%.

The same assay, now with this note: second compound 3.16 µM; first compound 0.01 µM; stronger effect = lower value.
As for `CC1COCCN1c1cc(-c2ccnn2C)c2ccnc(-c3ccn[nH]3)c2n1` (stereo not given) + Cc1ccccc1N=Nc1ccc(NC(=O)c2ccnn2C)c(C)c1, the viability, T/C was 110%.

Turning to `CC1COCCN1c1cc(-c2ccnn2C)c2ccnc(-c3ccn[nH]3)c2n1` (stereo not given) + CC(CO)NC(=O)c1cc(-c2ccc(Cl)cc2)nn(-c2cnn(C)c2)c1=O, the viability, T/C is 105%.

The same assay, now with this note: second compound 3.16 µM; first compound 0.0316 µM; stronger effect = lower value.
As to `CC1COCCN1c1cc(-c2ccnn2C)c2ccnc(-c3ccn[nH]3)c2n1` (stereo not given) + Cc1ccccc1N=Nc1ccc(NC(=O)c2ccnn2C)c(C)c1, the viability, T/C is 101%.

For the compound `NS(=O)(=O)OCC1CC(n2ccc3c(NC4CCc5ccccc54)ncnc32)CC1O` (stereo not given) + Cc1ccccc1N=Nc1ccc(NC(=O)c2ccnn2C)c(C)c1, the viability, T/C is 115%.

For the compound `COc1ccc([C@@H](O)c2cc(-c3ncnc4cc(N5CCOCC5)ccc34)c(F)cc2Cl)nn1` + Cc1ccccc1N=Nc1ccc(NC(=O)c2ccnn2C)c(C)c1, the viability, T/C is 93.8%.

For the origin of these results see PubChem BioAssay AID1919001 (Molecular Pharmacology Branch, DTP, NCI, 2023).
